From patent publication US12653860B2, “Compositions and methods for editing beta-globin for treatment of hemaglobinopathies” (Vertex Pharmaceuticals Incorporated, priority 2019, dated 2026)

How the values were obtained:
[1] = tested on: HBB locus in CD34-expressing LT-HSPCs; experiment: HDR incorporation of sickle (E7V) edit at HBB locus in vitro, NGS assay; type: cell-based, human; settings: for incorporation of the E7V gene edit: 1 μg mRNA encoding i53
Description: The cells were electroporated with 1 g mRNA encoding i53.

[2] = tested on: cKit mice; experiment: Lineage analysis of engrafted human CD45-expressing cells in mouse bone marrow; type: in vivo
Protocol: Presence of human hematopoietic cells was measured by flow cytometry in mouse blood or bone marrow samples. Cells were gated on singlet, live cells. Mouse and human CD45-expressing hematopoietic cells were distinguished by antibodies targeting mouse or human CD45. Engraftment was measured as percent chimerism which was defined as the quantity of human CD45 positive cells divided by the total number of CD45 positive cells (e.g., human and mouse CD45 expressing cells combined). The lineage of human CD45 positive cells was determined using markers for CD19 (e.g., B cells), CD3 (e.g., T cells), CD33 (e.g., myeloid cells), and CD34 (hematopoietic stem/progenitor cells (HSPCs)).
Shown in FIGS. 18A-18B is lineage analysis of engrafted CD45-expressing human cells in mouse bone marrow samples collected at 16 weeks post administration of LT-HSPCs. The lineage of CD45-expressing human leukocytes was evaluated for unedited LT-HSPCs administered at a dose of 0.01×10^6, 0.05×10^6, 0.1×10^6, or 0.25×10^6 cells (FIG. 18A). The lineage of CD45-expressing human leukocytes was also evaluated for LT-HSPCs edited with AAV+RNP either in the presence or absence of i53 (FIG. 18B).
Shown in FIG. 25 is lineage analysis of engrafted CD45-expressing human cells in mouse bone marrow samples collected at 16 weeks post administration of LT-HSPCs. […]

[3] = tested on: GSD1a locus in HEK293 T cells; experiment: HDR editing of GSD1a locus with ssODN homology donors; type: cell-based; settings: FIG. 3; for HDR efficiency: 1.25 μM SCR7 or 10 μM RS-1
Protocol: 2×10^5 cells were edited with 1 μM Cas9 and 1.5 μM gRNA. The cells were transfected with two different ssODNs homology donors: 93-50 (SEQ ID NO: 39) or 25-100 (SEQ ID NO: 40). These two ssODN donors contain homology arms spanning both sides of the double-stranded break induced by the Cas9-guide and facilitate correction of a point mutation in the G6PC gene sequence by HDR. Cells were edited with 100 μM ssODN. The cells were treated with 2.5 μM Nu7441, 1.25 μM SCR7, or 10 μM RS-1 and the effect on HDR efficiency was evaluated.

[4] = tested on: GFP gene encoded in the AAVS1 locus of HEK293 T cells; experiment: GFP to BFP reporter assay of HDR repair (BFP fluorescence); type: cell-based; settings: four ssODNs
Protocol: The effect of DNA PK inhibition by Nu7441 correction of a DSB by the NHEJ pathway (e.g., introduce an indel at the DSB site) or HDR pathway (e.g., introduce a gene mutation encoded by a homology donor at the DSB site) was assessed using the reporter system described in Example 1. In this case gene-editing was evaluated in HEK293 T cells expressing GFP in the AAVS1 locus. To introduce a gene edit that converts GFP to BFP, cells were electroporated with ribonucleoprotein (RNP) comprised of Cas9 and gRNA1 (GFP target sequence identified by SEQ ID NO: 9; sgRNA spacer sequence identified by SEQ ID NO: 10) or gRNA2 (GFP target sequence identified by SEQ ID NO: 11; sgRNA spacer identified by SEQ ID NO: 12) that targets the GFP gene encoded in the AAVS1 locus. The cells were also transfected with ssODNs that encoded the gene correction necessary to convert GFP to BFP and homology arms complimentary to the sequence upstream and downstream of the target gene cut site. The efficiency of HDR repair was determined by measuring the level of cell BFP fluorescence. The efficiency of cutting (indel information) was monitored by TIDE analysis.
Shown in FIGS. 2A-2B is a comparison of HDR editing efficiency for cells treated with Nu7441, SCR7, or RS-1. Shown in FIG. 2A are cells were electroporated with RNP comprising Cas9 and gRNA1 (GFP target sequence shown in SEQ ID NO: 9; sgRNA spacer sequence identified by SEQ ID NO: 10). 2×10^5 cells were edited with 1 μM Cas9 and 1.5 μM gRNA1. The cells were transfected with four different ssODNs. These included ssODN 1067 (SEQ ID NO: 29) and ssODN 1069 (SEQ ID NO: 31) that are complimentary to the DNA strand containing the PAM sequence and ssODN 1068 (SEQ ID NO: 30) and ssODN 1070 (SEQ ID NO: 32) that are complimentary to the DNA strand not containing the PAM sequence. Cells were edited with 100 μM ssODN. A concentrated stock solution of each inhibitor was prepared in DMSO and diluted to a final concentration of 2.5 μM Nu7441, 1.25 μM SCR7, or 10 μM RS-1. HDR efficiency was compared relative to treatment with DMSO alone or to treatment with RNP-only.
Shown in FIG. 2B are cells were electroporated with RNP comprising Cas9 and gRNA2 (GFP target sequence shown in SEQ ID NO: 11; sgRNA spacer sequence shown in SEQ ID NO: 12). The cells were transfected with four different ssODNs. These included ssODN 1061 (SEQ ID NO: 33) and ssODN 1063 (SEQ ID NO: 35) that are complimentary to the DNA strand containing the PAM sequence and ssODN 1062 (SEQ ID NO: 34) and ssODN 1064 (SEQ ID NO: 36) that are complimentary to the DNA strand not containing the PAM sequence.

[5] = gRNA1, 2.5 μM Nu7441, 1.25 μM SCR7 or 10 μM RS-1, vs DMSO alone, FIG. 2A

i53: polypeptide inhibitor of 53BP1 (SEQ ID NO: 70), delivered as mRNA (ORF SEQ ID NO: 69)
incorporation of the E7V gene edit ([1]; pre-EP AAV.304, FIG. 22B): 58% | incorporation of the E7V gene edit ([1]; AAV.307 + Cas9/R02 RNP, FIG. 10): 68% | cells incorporating the sickle cell gene-edit ([1]; LT-HSPCs mobilized by Mozobil alone, i53, FIG. 12B): approximately 70% | HDR efficiency, fold increase over RNP+AAV alone ([1]; LT-HSPCs mobilized by Mozobil+GCSF, FIG. 12A): approximately 1.5 fold | incorporation of the sickle cell gene-edit by HDR ([1]; LT-HSPCs mobilized by Mozobil+GCSF, i53, FIG. 12A): approximately 60% | lineage distribution of engrafted cells ([2]; bone marrow 16 weeks, edited vs un-edited LT-HSPCs, FIG. 18B): no gross changes in lineage distribution

O=c1cc(N2CCOCC2)oc2c(-c3cccc4c3sc3ccccc34)cccc12 [Nu7441]
HDR efficiency, fold increase over DMSO alone ([3]; 2.5 μM Nu7441, ssODN 93-50 or 25-100): approximately 1.7 fold | HDR efficiency over RNP+AAV alone ([1]; 5 μM Nu7441, pre-EP AAV.304, FIG. 22B): no improvement of HDR efficiency | HDR efficiency [4, 5]: improved HDR efficiency | HDR efficiency ([4]; gRNA2, 2.5 μM Nu7441): improved HDR efficiency | lineage of human leukocytes in bone marrow ([2]; 16 weeks, compared to treatment with i53, FIG. 25): greater proportion of CD34-expressing cells and myeloid cells

O=c1[nH]c(=S)[nH]c(N=Cc2ccccc2)c1N=Cc1ccccc1 [SCR7]
HDR efficiency [3]: no effect | HDR efficiency [4, 5]: no improvement in HDR efficiency

O=C(Nc1ccc(Br)cc1)c1ccc(Br)c(S(=O)(=O)NCc2ccccc2)c1 [RS-1]
HDR efficiency [3]: no effect | HDR efficiency [4, 5]: no improvement in HDR efficiency
